# Compound: CN(C)C(=N)NC(=N)N [Metformin] + Cc1nc(Nc2ncc(C(=O)Nc3c(C)cccc3Cl)s2)cc(N2CCN(CCO)CC2)n1 [Dasatinib] (partner 0.075 µM)
# Experiment: relative viability (nuclei count vs DMSO), 5 days (fraction); higher = more cells survive
# Settings: first compound 10 µM
# Method in brief: (§1)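 Cells from lung cancer lines were seeded into 1536-well plates and, one day later, dosed by pin tool. Treatments were either a single drug or a fixed dose of an anchor drug with five library-drug doses (not always all listed) in √10 steps. After 5 days, nuclei were stained in a one-step fixation (final 0.05% Triton X-100, 1% formaldehyde, 1 ug/ml Hoechst) and counted on 4× images, and relative viability is the treated-to-vehicle nuclei ratio, as the median of duplicate plates.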
row,Cell Line,relative viability
1,NCI-H596,0.622
2,NCI-H647,0.226
3,NCI-H650,0.466
4,NCI-H727,0.399
5,NCI-H838,0.271
6,NCI-H1355,0.718
7,NCI-H1395,0.438
8,NCI-H1437,0.602
9,NCI-H1650,0.443
10,NCI-H1651,0.757
11,NCI-H1666,0.752
12,NCI-H1734,0.413
13,NCI-H1755,0.422
14,NCI-H1793,0.38
15,NCI-H1944,0.22
16,NCI-H1975,0.558
17,NCI-H1993,0.764
18,NCI-H2009,0.503
19,NCI-H2023,0.599
20,NCI-H2085,0.327
21,NCI-H2126,0.548
22,NCI-H2170,0.514
23,NCI-H2228,0.519
24,NCI-H2342,0.315

# Same assay, conditions: first compound 31.62 µM
row,Cell Line,relative viability
1,NCI-H596,0.67
2,NCI-H647,0.231
3,NCI-H650,0.438
4,NCI-H661,0.895
5,NCI-H727,0.451
6,NCI-H838,0.254
7,NCI-H1355,0.638
8,NCI-H1395,0.483
9,NCI-H1437,0.48
10,NCI-H1650,0.456
11,NCI-H1651,0.349
12,NCI-H1666,0.957
13,NCI-H1734,0.472
14,NCI-H1755,0.332
15,NCI-H1915,0.34
16,NCI-H1944,0.227
17,NCI-H1975,0.417
18,NCI-H1993,0.59
19,NCI-H2009,0.522
20,NCI-H2023,0.618
21,NCI-H2085,0.336
22,NCI-H2087,0.933
23,NCI-H2126,0.557
24,NCI-H2170,0.625
25,NCI-H2228,0.576
26,NCI-H2342,0.291

# Same assay, conditions: first compound 100 µM
row,Cell Line,relative viability
1,NCI-H596,0.757
2,NCI-H647,0.567
3,NCI-H650,0.339
4,NCI-H661,0.995
5,NCI-H727,0.478
6,NCI-H838,0.356
7,NCI-H1355,0.681
8,NCI-H1395,0.493
9,NCI-H1437,0.359
10,NCI-H1650,0.366
11,NCI-H1651,0.346
12,NCI-H1666,0.79
13,NCI-H1734,0.463
14,NCI-H1755,0.433
15,NCI-H1793,0.42
16,NCI-H1915,0.346
17,NCI-H1944,0.252
18,NCI-H1975,0.553
19,NCI-H1993,0.665
20,NCI-H2009,0.483
21,NCI-H2023,0.703
22,NCI-H2085,0.333
23,NCI-H2087,0.891
24,NCI-H2126,0.556
25,NCI-H2170,0.619
26,NCI-H2228,0.438
27,NCI-H2342,0.326

# Same assay, conditions: first compound 316.23 µM
row,Cell Line,relative viability
1,NCI-H596,0.696
2,NCI-H647,0.221
3,NCI-H650,0.502
4,NCI-H661,0.828
5,NCI-H838,0.241
6,NCI-H1355,0.638
7,NCI-H1395,0.385
8,NCI-H1437,0.41
9,NCI-H1650,0.301
10,NCI-H1651,0.361
11,NCI-H1666,0.798
12,NCI-H1734,0.47
13,NCI-H1755,0.36
14,NCI-H1793,0.342
15,NCI-H1915,0.335
16,NCI-H1944,0.254
17,NCI-H1975,0.418
18,NCI-H1993,0.639
19,NCI-H2009,0.401
20,NCI-H2023,0.493
21,NCI-H2085,0.306
22,NCI-H2087,0.676
23,NCI-H2126,0.372
24,NCI-H2170,0.664
25,NCI-H2228,0.458
26,NCI-H2342,0.285

# Same assay, conditions: first compound 1000 µM
row,Cell Line,relative viability
1,NCI-H596,0.655
2,NCI-H647,0.212
3,NCI-H650,0.332
4,NCI-H661,0.893
5,NCI-H727,0.49
6,NCI-H838,0.348
7,NCI-H1355,0.778
8,NCI-H1395,0.509
9,NCI-H1437,0.415
10,NCI-H1650,0.369
11,NCI-H1651,0.464
12,NCI-H1666,0.779
13,NCI-H1734,0.498
14,NCI-H1755,0.417
15,NCI-H1793,0.515
16,NCI-H1915,0.355
17,NCI-H1944,0.246
18,NCI-H1975,0.402
19,NCI-H1993,0.703
20,NCI-H2009,0.467
21,NCI-H2023,0.662
22,NCI-H2085,0.358
23,NCI-H2087,0.693
24,NCI-H2126,0.337
25,NCI-H2170,0.634
26,NCI-H2228,0.55
27,NCI-H2342,0.356

# Compound: CN(C)C(=N)NC(=N)N [Metformin] + O=C(CCCCCCC(=O)Nc1ccccc1)NO [Vorinostat] (partner 1 µM)
# Experiment: as above
# Settings: first compound 10 µM
# Method in brief: as §1
row,Cell Line,relative viability
1,NCI-H596,0.691
2,NCI-H647,0.705
3,NCI-H650,0.425
4,NCI-H661,0.851
5,NCI-H727,1.1
6,NCI-H838,0.645
7,NCI-H1355,0.597
8,NCI-H1395,0.855
9,NCI-H1437,1.1
10,NCI-H1650,0.492
11,NCI-H1651,0.505
12,NCI-H1666,0.979
13,NCI-H1734,0.753
14,NCI-H1755,0.579
15,NCI-H1793,0.943
16,NCI-H1944,0.465
17,NCI-H1975,0.688
18,NCI-H1993,0.585
19,NCI-H2009,0.715
20,NCI-H2023,0.292
21,NCI-H2085,0.733
22,NCI-H2087,0.595
23,NCI-H2126,0.739
24,NCI-H2170,0.55
25,NCI-H2228,0.843

# Same assay, conditions: first compound 31.62 µM
row,Cell Line,relative viability
1,NCI-H596,0.854
2,NCI-H647,0.5
3,NCI-H650,0.413
4,NCI-H661,0.928
5,NCI-H727,1.16
6,NCI-H838,0.586
7,NCI-H1355,0.522
8,NCI-H1395,1.24
9,NCI-H1437,1.34
10,NCI-H1650,0.675
11,NCI-H1651,0.652
12,NCI-H1666,0.946
13,NCI-H1734,0.907
14,NCI-H1755,0.629
15,NCI-H1793,0.832
16,NCI-H1915,0.499
17,NCI-H1944,0.651
18,NCI-H1975,0.738
19,NCI-H1993,0.6
20,NCI-H2009,0.706
21,NCI-H2023,0.712
22,NCI-H2085,0.747
23,NCI-H2087,0.657
24,NCI-H2126,0.704
25,NCI-H2170,0.777
26,NCI-H2228,0.672
27,NCI-H2342,0.868

# Same assay, conditions: first compound 100 µM
row,Cell Line,relative viability
1,NCI-H596,0.674
2,NCI-H647,0.64
3,NCI-H650,0.405
4,NCI-H661,0.927
5,NCI-H727,1.13
6,NCI-H838,0.675
7,NCI-H1355,0.632
8,NCI-H1395,0.819
9,NCI-H1437,0.993
10,NCI-H1650,0.799
11,NCI-H1651,0.568
12,NCI-H1666,1.01
13,NCI-H1734,0.81
14,NCI-H1755,0.711
15,NCI-H1793,0.727
16,NCI-H1915,0.498
17,NCI-H1944,0.571
18,NCI-H1975,0.705
19,NCI-H1993,0.646
20,NCI-H2009,0.857
21,NCI-H2023,0.354
22,NCI-H2085,0.775
23,NCI-H2087,0.637
24,NCI-H2126,0.752
25,NCI-H2170,0.79
26,NCI-H2228,0.825
27,NCI-H2342,0.837

# Same assay, conditions: first compound 316.23 µM
row,Cell Line,relative viability
1,NCI-H596,0.596
2,NCI-H647,0.56
3,NCI-H650,0.556
4,NCI-H661,0.818
5,NCI-H838,0.569
6,NCI-H1355,0.589
7,NCI-H1395,0.868
8,NCI-H1437,0.961
9,NCI-H1650,0.529
10,NCI-H1651,0.614
11,NCI-H1666,1.06
12,NCI-H1734,0.78
13,NCI-H1755,0.657
14,NCI-H1793,0.662
15,NCI-H1915,0.46
16,NCI-H1944,0.59
17,NCI-H1975,0.645
18,NCI-H1993,0.608
19,NCI-H2009,0.83
20,NCI-H2023,0.496
21,NCI-H2085,0.788
22,NCI-H2087,0.567
23,NCI-H2126,0.694
24,NCI-H2170,0.813
25,NCI-H2228,0.597
26,NCI-H2342,0.745

# Same assay, conditions: first compound 1000 µM
row,Cell Line,relative viability
1,NCI-H596,0.784
2,NCI-H647,0.588
3,NCI-H650,0.533
4,NCI-H661,0.82
5,NCI-H727,1.13
6,NCI-H838,0.654
7,NCI-H1355,0.609
8,NCI-H1395,0.414
9,NCI-H1437,1.01
10,NCI-H1650,0.52
11,NCI-H1651,0.608
12,NCI-H1666,1.1
13,NCI-H1734,0.914
14,NCI-H1755,0.763
15,NCI-H1793,1.02
16,NCI-H1915,0.517
17,NCI-H1944,0.631
18,NCI-H1975,0.729
19,NCI-H1993,0.921
20,NCI-H2009,0.75
21,NCI-H2023,0.38
22,NCI-H2085,0.812
23,NCI-H2087,0.671
24,NCI-H2126,0.872
25,NCI-H2170,0.795
26,NCI-H2228,0.635
27,NCI-H2342,0.853

# Compound: CN(C)C(=N)NC(=N)N [Metformin] + CCNC(=O)c1noc(-c2cc(C(C)C)c(O)cc2O)c1-c1ccc(CN2CCOCC2)cc1 [Luminespib] (partner 0.01 µM)
# Experiment: as above
# Settings: first compound 10 µM
# Method in brief: as §1
row,Cell Line,relative viability
1,NCI-H596,0.98

# From the supplement of paper PMC10307832
